The text below walks through data of paper PMC9295122, “Sialic Acid Derivatives Inhibit SiaT Transporters and Delay Bacterial Growth” (ACS Chemical Biology, 2022).

As usually defined, the ΔTm is the change in melting temperature against a reference sample.

Read-outs that look alike come from different tables or passages of the source.

In one experiment the target is T1, PmSiaT (Proteus mirabilis, UniProt B4EZY7).
T1 construct: made in house
T1 sequence (B4EZY7 1-496): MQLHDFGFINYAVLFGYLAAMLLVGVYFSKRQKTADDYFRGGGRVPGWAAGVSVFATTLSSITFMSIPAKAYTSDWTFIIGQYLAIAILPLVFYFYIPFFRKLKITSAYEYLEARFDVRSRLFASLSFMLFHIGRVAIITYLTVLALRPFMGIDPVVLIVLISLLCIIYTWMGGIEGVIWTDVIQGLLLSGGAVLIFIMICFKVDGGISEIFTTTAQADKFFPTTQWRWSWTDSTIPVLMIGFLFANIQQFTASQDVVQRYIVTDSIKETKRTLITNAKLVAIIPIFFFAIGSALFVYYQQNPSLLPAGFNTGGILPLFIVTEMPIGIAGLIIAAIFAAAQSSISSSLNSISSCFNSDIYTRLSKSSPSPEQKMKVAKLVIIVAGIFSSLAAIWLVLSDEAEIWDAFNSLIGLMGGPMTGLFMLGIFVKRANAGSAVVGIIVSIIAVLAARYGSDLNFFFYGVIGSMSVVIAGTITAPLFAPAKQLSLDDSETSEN
The experiment is described as follows: nanoDSF thermal shift assay, PmSiaT. In kind it is binding. To be noted: for Average 1 / Average 2 / Average 3 / Replicate 1 / Replicate 2 / Replicate 3: PmSiaT Tm; for Average 1: average of experiment 1; for Average 2: average of experiment 2; for Average 3: average of experiment 3; for Replicate 1: experiment 1, second capillary; for Replicate 1 / Replicate 2 / Replicate 3 / Tm 1 / Tm2 / Tm 3 / Tm average overall / ΔTm at 1250 µM: 1.25 mM; for Replicate 2: experiment 2, second capillary; for Replicate 3: experiment 3, second capillary; for Tm 1 / ΔTm / Tm2 / Tm 3 / Tm average overall / ΔTm at 1250 µM: PmSiaT; for Tm 1: experiment 1, first capillary; for Tm2: experiment 2, first capillary; for Tm 3: experiment 3, first capillary; for Tm average overall / ΔTm at 1250 µM: three experiments; for ΔTm at 1250 µM: vs Neu5Ac, read-out: ΔTm average overall. The procedure:
(§1) Nano-differential scanning fluorimetry (nanoDSF) is a high-throughput method that relies on the thermal stabilization of the folded protein state by a bound ligand.[33]
(§2) The melting points of protein–inhibitor complexes were measured on a Prometheus NT.48 instrument from NanoTemper Technologies. Solutions containing the protein at 2 μM in phosphate buffered saline with 0.0174% (w/v) dodecylmaltoside (DDM) and the ligand at 1.25 mM were loaded onto standard capillaries by NanoTemper. The temperature was increased from 25 to 95 °C at a ramp rate of 1 °C/min. The fluorescence was recorded at 330 and 350 nm and as a ratio of the two wavelengths.
(§3) The intensity ratio and its first derivative were calculated using manufacturer’s software (PR.ThermControl, version 2.1.2).
(§4) The melting temperatures have been measured in 3 separate experiments. In each experiment, two capillaries were included per compound, having therefore 2 technical replicates per experiment. In the table all data is presented. Tm1 and Replicate 1 represent the two replicates of the first experiment. Average 1 is the average between Tm 1 and Replicate 1. ΔTm 1 is the thermal shift when compared to the Tm of Neu5Ac. This is calculated from Average 1. The ΔTm presented in the article are the ΔTm average overall, which represent the overall average of the averages from the three experiments. The standard deviation (SD) is calculated from the […]
On the technique in general: Differential scanning fluorimetry follows unfolding on heating by fluorescence.

For the next experiment, the target named is SaSiaT (Staphylococcus aureus, UniProt A0A0H2XJ46). The experiment is described as follows: nanoDSF thermal shift assay, SaSiaT. In kind it is binding. The settings on record: for Average 1 / Average 2 / Average 3 / Replicate 1 / Replicate 2 / Replicate 3: SaSiaT Tm; for Average 1: average of experiment 1; for Average 2: average of experiment 2; for Average 3: average of experiment 3; for Replicate 1: experiment 1, second capillary; for Replicate 1 / Replicate 2 / Replicate 3 / Tm 1 / Tm2 / Tm 3 / Overall average (Tm): 1.25 mM; for Replicate 2: experiment 2, second capillary; for Replicate 3: experiment 3, second capillary; for Tm 1 / Tm2 / Tm 3 / Overall average (Tm): SaSiaT; for Tm 1: experiment 1, first capillary; for Tm2: experiment 2, first capillary; for Tm 3: experiment 3, first capillary; for Overall average (Tm): three experiments. The procedure:
as §1, §2, §3, §4

The mark [1] stands for this setting: experiment 1, vs Neu5Ac, read-out: ΔTm 1.
The mark [2] stands for this setting: experiment 2, vs Neu5Ac, read-out: ΔTm 2.
Where [3] appears, read: experiment 3, vs Neu5Ac, read-out: ΔTm 3.

Chain of SaSiaT (A0A0H2XJ46 entry or part of it): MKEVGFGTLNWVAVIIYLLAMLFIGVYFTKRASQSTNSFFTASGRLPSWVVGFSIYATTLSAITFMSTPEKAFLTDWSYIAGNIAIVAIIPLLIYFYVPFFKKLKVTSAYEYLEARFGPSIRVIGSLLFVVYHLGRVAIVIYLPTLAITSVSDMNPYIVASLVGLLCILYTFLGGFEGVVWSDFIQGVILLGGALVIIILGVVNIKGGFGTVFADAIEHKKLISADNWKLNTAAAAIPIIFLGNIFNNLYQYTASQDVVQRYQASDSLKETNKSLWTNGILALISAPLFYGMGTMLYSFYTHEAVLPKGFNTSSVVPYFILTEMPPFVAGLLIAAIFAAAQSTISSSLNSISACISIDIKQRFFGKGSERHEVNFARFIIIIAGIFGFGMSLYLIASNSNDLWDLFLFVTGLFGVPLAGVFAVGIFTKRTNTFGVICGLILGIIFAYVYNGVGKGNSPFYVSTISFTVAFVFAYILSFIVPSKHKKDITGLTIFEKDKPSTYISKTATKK

`CC(=O)NC1C(OCc2ccc(F)cc2)CC(O)(C(=O)O)OC1C(O)C(O)CO` (stereo not drawn) [Compound 3b]: at PmSiaT, the “Average 1” value came to 53.2 °C, the “Average 2” value is 53.2 °C, the “Average 3” value was determined as 53.1 °C and the “Replicate 1” value worked out at 53.4 °C. Moreover, at PmSiaT, the “Replicate 2” value stood at 53.4 °C, the “Replicate 3” value came to 53.2 °C, the “Tm 1” value was 53.1 °C and the Tm2 came to 53.1 °C. Moreover, on PmSiaT, the “Tm 3” value was 53.0 °C, the Tm average overall was 53.2 °C and the shift in melting temperature (ΔTm) at 1250 µM stood at 4 °C. Further, the ΔTm on PmSiaT (setting [1]) came to 4.2 °C. Further, the ΔTm at PmSiaT (setting [2]) stood at 4 °C. For the same molecule, the ΔTm on PmSiaT (setting [3]) is 3.8 °C. Also, at SaSiaT, the “Average 1” value came out at 56.4 °C, the “Average 2” value came out at 56.2 °C, the “Average 3” value turned out to be 56.7 °C and the “Replicate 1” value was 56.4 °C. For the same molecule, on SaSiaT, the “Replicate 2” value was determined as 56.2 °C, the “Replicate 3” value turned out to be 56.4 °C, the “Tm 1” value is 56.4 °C and the “Tm2” value stood at 56.3 °C. Besides, on SaSiaT, the “Tm 3” value was 56.9 °C and the “Overall average (Tm)” value stood at 56.4 °C.

As to `CC(=O)NC1C(OCc2ccc(Br)cc2)CC(O)(C(=O)O)OC1C(O)C(O)CO` (stereo not drawn) [Compound 3c], at PmSiaT, the “Average 1” value was found to be 56.7 °C, the “Average 2” value was 55.9 °C, the “Average 3” value was determined as 56.0 °C and the “Replicate 1” value amounted to 56.7 °C. Also, at PmSiaT, the “Replicate 2” value was found to be 56.0 °C, the “Replicate 3” value was determined as 56.1 °C, the “Tm 1” value was 56.6 °C and the Tm2 stood at 55.8 °C. Besides, on PmSiaT, the “Tm 3” value is 56.0 °C, the Tm average overall worked out at 56.2 °C and the ΔTm at 1250 µM worked out at 7 °C. The ΔTm at PmSiaT (setting [1]) is 7.7 °C. The thermal shift (ΔTm) on PmSiaT (setting [2]) amounted to 6.7 °C. Besides, the ΔTm on PmSiaT (setting [3]) turned out to be 6.7 °C. In addition, on SaSiaT, the “Average 1” value was determined as 54.2 °C, the “Average 2” value was 53.5 °C, the “Average 3” value came out at 54.5 °C and the “Replicate 1” value was determined as 54.4 °C. Besides, on SaSiaT, the “Replicate 2” value stood at 53.5 °C, the “Replicate 3” value was determined as 54.4 °C, the “Tm 1” value is 54.1 °C and the “Tm2” value came to 53.5 °C. For the same molecule, at SaSiaT, the “Tm 3” value turned out to be 54.5 °C and the “Overall average (Tm)” value came to 54.1 °C.

Regarding `CC(=O)NC1C(OCc2ccc(C#N)cc2)CC(O)(C(=O)O)OC1C(O)C(O)CO` (stereo not drawn) [Compound 3d], at PmSiaT, the “Average 1” value is 55.3 °C, the “Average 2” value is 53.7 °C, the “Average 3” value is 54.1 °C and the “Replicate 1” value stood at 55.4 °C. On PmSiaT, the “Replicate 2” value turned out to be 53.8 °C, the “Replicate 3” value came to 54.1 °C, the “Tm 1” value was determined as 55.2 °C and the Tm2 was found to be 53.6 °C. Also, at PmSiaT, the “Tm 3” value is 54.2 °C, the Tm average overall came to 54.4 °C and the ΔTm at 1250 µM was 5.2 °C. For the same molecule, the ΔTm on PmSiaT (setting [1]) was determined as 6.3 °C. In addition, the ΔTm on PmSiaT (setting [2]) was found to be 4.5 °C. The ΔTm at PmSiaT (setting [3]) is 4.8 °C. On SaSiaT, the “Average 1” value came out at 54.4 °C, the “Average 2” value stood at 53.6 °C, the “Average 3” value was found to be 53.0 °C and the “Replicate 1” value is 54.3 °C. Besides, at SaSiaT, the “Replicate 2” value worked out at 53.6 °C, the “Replicate 3” value amounted to 53.9 °C, the “Tm 1” value amounted to 54.4 °C and the “Tm2” value amounted to 53.6 °C. In addition, at SaSiaT, the “Tm 3” value amounted to 52.0 °C and the “Overall average (Tm)” value was 53.7 °C.

Take `CCC(=O)NC1C(O)CC(O)(C(=O)O)OC1C(O)C(O)CO` (stereo not drawn) [Compound 6a]: at PmSiaT, the “Average 2” value stood at 46.8 °C, the “Average 3” value was 46.7 °C, the “Replicate 1” value was found to be 46.8 °C and the “Replicate 2” value came to 46.8 °C. For the same molecule, on PmSiaT, the “Replicate 3” value came to 46.6 °C, the “Tm 1” value came to 46.8 °C, the Tm2 turned out to be 46.8 °C and the “Tm 3” value worked out at 46.7 °C. For the same molecule, on PmSiaT, the Tm average overall turned out to be 46.8 °C and the shift in melting temperature (ΔTm) at 1250 µM is -2.4 °C. The ΔTm at PmSiaT (setting [1]) is -2.2 °C. In addition, the shift in melting temperature (ΔTm) on PmSiaT (setting [2]) was -2.4 °C. The thermal shift (ΔTm) on PmSiaT (setting [3]) was -2.6 °C. Also, at SaSiaT, the “Average 1” value turned out to be 40.8 °C, the “Average 2” value came to 41.9 °C, the “Average 3” value was found to be 42.2 °C and the “Replicate 1” value is 40.9 °C. Besides, on SaSiaT, the “Replicate 2” value was found to be 41.8 °C, the “Replicate 3” value was 42.1 °C, the “Tm 1” value worked out at 40.8 °C and the “Tm2” value was found to be 42.0 °C. Also, at SaSiaT, the “Tm 3” value amounted to 42.3 °C and the “Overall average (Tm)” value came to 41.6 °C.

For the molecule `CC(C)C(=O)NC1C(O)CC(O)(C(=O)O)OC1C(O)C(O)CO` (stereo not drawn) [Compound 6b], at PmSiaT, the “Average 2” value was determined as 47.1 °C, the “Average 3” value is 47.0 °C, the “Replicate 1” value was determined as 47.1 °C and the “Replicate 2” value was found to be 47.0 °C. On PmSiaT, the “Replicate 3” value came out at 47.0 °C, the “Tm 1” value amounted to 47.1 °C, the Tm2 worked out at 47.2 °C and the “Tm 3” value was determined as 47.0 °C. In addition, on PmSiaT, the Tm average overall stood at 47.1 °C and the ΔTm at 1250 µM was -2.1 °C. The ΔTm on PmSiaT (setting [1]) is -1.9 °C. For the same molecule, the ΔTm at PmSiaT (setting [2]) is -2.1 °C. Also, the ΔTm on PmSiaT (setting [3]) is -2.3 °C. On SaSiaT, the “Average 1” value was found to be 45.1 °C, the “Average 2” value came to 44.6 °C, the “Average 3” value was determined as 45.2 °C and the “Replicate 1” value worked out at 45.0 °C. Also, at SaSiaT, the “Replicate 2” value came out at 44.6 °C, the “Replicate 3” value was 45.1 °C, the “Tm 1” value came to 45.1 °C and the “Tm2” value was 44.6 °C. Further, at SaSiaT, the “Tm 3” value turned out to be 45.3 °C and the “Overall average (Tm)” value worked out at 45.0 °C.

Consider `CC(C)(C)C(=O)NC1C(O)CC(O)(C(=O)O)OC1C(O)C(O)CO` (stereo not drawn) [Compound 6c], for which, on PmSiaT, the “Average 2” value turned out to be 46.7 °C, the “Average 3” value amounted to 46.7 °C, the “Replicate 1” value amounted to 46.3 °C and the “Replicate 2” value came to 46.7 °C. Moreover, on PmSiaT, the “Replicate 3” value worked out at 46.6 °C, the “Tm 1” value was 46.6 °C, the Tm2 was found to be 46.7 °C and the “Tm 3” value was 46.7 °C. On PmSiaT, the Tm average overall came out at 46.6 °C and the ΔTm at 1250 µM was -2.5 °C. Moreover, the thermal shift (ΔTm) at PmSiaT (setting [1]) was -2.5 °C. Also, on PmSiaT (setting [2]), the ΔTm was -2.5 °C. Also, on PmSiaT (setting [3]), the ΔTm is -2.6 °C. Besides, on SaSiaT, the “Average 1” value came to 43.5 °C, the “Average 2” value was determined as 44.2 °C, the “Average 3” value was determined as 43.8 °C and the “Replicate 1” value was 43.4 °C. At SaSiaT, the “Replicate 2” value was found to be 44.1 °C, the “Replicate 3” value turned out to be 43.6 °C, the “Tm 1” value was 43.6 °C and the “Tm2” value amounted to 44.2 °C. Also, on SaSiaT, the “Tm 3” value came to 43.9 °C and the “Overall average (Tm)” value was found to be 43.8 °C.
